Test results from patent US20230052403A1, “MIXTURES COMPRISING A SOLID CARRIER COMPRISING AN UREASE INHIBITOR AND A FURTHER SOLID CARRIER COMPRISING A NITRIFICATION INHIBITOR” (BASF SE, priority 2020, published 2023).
Read-outs that look alike come from different tables or passages of the source.

Tested on: urease
Method: The urea-stabilizing effect detected as the volatile NH3 losses from soil surface applied urea:
176 g air dried soil is filled into 500 mL laboratory bottle, which is then be watered with de-ionized water up to 50% of its water holding capacity and incubated at room temperature (about 21° C.) for 24 h.
Urea granules are evenly distributed on the soil in each bottle. Each granule is treated with 5 μL of the respective products, containg the compositions and mixtures of the invention in the appropriate concentrations. N amount applied was 80 mg per bottle.
NH3 free air blows constantly at a rate of about 4 L per min. through the bottle which bubbles through a scrubber solution which is periodically renewed and analyzed for NH4^+ with an autoanalyzer.

With `CCCCNP(N)(N)=S` [NBPT, N-(n-butyl)thiophosphoric acid triamide] the “reduction of NH3—N losses (UI effect), in words” value (“reduction of NH3—N losses” for short) (Piammon, UI and DMPP on the same granules) was “Nearly no reduction of NH3—N losses”, the “stability of the urease inhibitor, in words” value (UI and DMPP on the same Piammon granules) was “destroyed by DMPP” and the “stability of the urease inhibitor, in words” value (UI and DMPP on the same urea granules) was “destroyed by DMPP”. The “reduction of NH3—N losses” value (UI applied on Piammon granules only as well as mixed with DMPSA-treated AS granules) was “Significant reduction of NH3—N losses”, the “reduction of NH3—N losses” value (UI applied on urea granules only and mixed with DMPP-treated AS granules) was “Significant reduction of NH3—N losses” and the “reduction of NH3—N losses” value (UI applied on urea granules only and mixed with DMPP-treated urea granules) was “Significant reduction of NH3—N losses”. For the same compound, the “reduction of NH3—N losses” value (UI applied on urea granules only as well as mixed with DMPSA-treated urea granules) was “Significant reduction of NH3—N losses” and the “reduction of NH3—N losses” value (urea, UI and DMPP on the same urea granules) was “No reduction of NH3—N losses”.
